What was measured:
COX-2 = target: T1, COX-2 (Homo sapiens, UniProt P35354); assay: Cell-based COX-2 inhibition (canine, feline or human assays); details: from IC50 COX-1 vs COX-2
T1 sequence (P35354 18-604): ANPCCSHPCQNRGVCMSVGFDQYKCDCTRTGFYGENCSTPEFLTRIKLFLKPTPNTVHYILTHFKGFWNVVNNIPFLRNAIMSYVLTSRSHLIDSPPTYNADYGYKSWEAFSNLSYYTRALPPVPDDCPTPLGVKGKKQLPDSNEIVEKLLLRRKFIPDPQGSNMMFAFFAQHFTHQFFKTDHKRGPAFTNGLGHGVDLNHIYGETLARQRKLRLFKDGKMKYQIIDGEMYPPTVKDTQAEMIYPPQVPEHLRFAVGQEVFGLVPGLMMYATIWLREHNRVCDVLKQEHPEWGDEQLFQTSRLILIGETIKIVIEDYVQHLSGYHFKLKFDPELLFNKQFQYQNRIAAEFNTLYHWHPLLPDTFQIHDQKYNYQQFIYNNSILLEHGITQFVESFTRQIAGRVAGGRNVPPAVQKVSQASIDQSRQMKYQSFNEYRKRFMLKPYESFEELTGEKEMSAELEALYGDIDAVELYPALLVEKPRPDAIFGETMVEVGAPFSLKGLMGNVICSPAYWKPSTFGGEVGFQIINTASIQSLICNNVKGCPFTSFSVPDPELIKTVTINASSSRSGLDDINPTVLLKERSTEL
Procedure: The human cell based COX-2 assay can be carried out as previously described (Moore et al., Inflam. Res., 45, 54, 1996). Confluent human umbilical vein endothelial cells (HUVECs, Morinaga) in a 96-well flat bottom plate can be washed with 80 ml of RPMI1640 containing 2% FBS and incubated with hIL-1β (final concentration 300 U/ml, R & D Systems) at 37° C. for 24 hours. After washing, the activated HUVECs can be incubateed with test compound (final concentration; 0.1 nM-1 μM) dissolved in DMSO (final concentration; less than 0.01%) at 37° C. for 20 minutes and stimulated with A23187 (final concentration […]) in Hanks buffer containing 0.2% BSA, 20 mM Hepes at 37° C. for 15 minutes. 6-Keto-PGF1α, stable metabolite of PGI2, in the supernatant can be quantitated by using a radioimmunoassay method (antibody; Preseptive Diagnostics, SPA; Amersham).
A canine histocytoma (macrophage-like) cell line from the American Type Culture Collection designated as DH82, can be used in setting up the protocol for evaluating the COX-2 inhibition activity of various test drug compounds. […] The EIA can be performed for prostaglandin E2 (PGE2) and the pg/mL concentration of PGE2 can be calculated from the standard line included on each plate. […] The results are averaged and a single COX-1:COX-2 ratio is calculated. […]

COX-1 = target: T2, COX-1 (Homo sapiens, UniProt P23219); assay: Cell-based COX-1 inhibition; details: assay/species not specified
T2 construct: endogenous in cells; host or cells: one of: human washed platelets, canine washed platelets, or feline/canine/human whole blood
Procedure: Human peripheral blood obtained from healthy volunteers can be diluted to 1/10 volume with 3.8% sodium citrate solution. The platelet-rich plasma immediately obtained can be washed with 0.14 M sodium chloride containing 12 mM Tris-HCl (pH 7.4) and 1.2 mM EDTA. Platelets can then be washed with platelet buffer (Hanks buffer (Ca free) containing 0.2% BSA and 20 mM Hepes). Finally, the human washed platelets (HWP) can be suspended in platelet buffer at the concentration of 2.85×10^8 cells/ml and stored at room temperature until use. The HWP suspension (70 μl aliquots, final 2.0×10^7 cells/ml) can be placed in a 96-well U bottom plate and 10 μl aliquots of 12.6 mM calcium chloride added. […] The reaction can be stopped by addition of EDTA (final 7.7 mM) and TxB2 in the supernatant quantitated by using a radioimmunoassay kit (Amersham) according to the manufacturer's procedure.
Test drug compounds can be solubilized and diluted the day before the assay can be to be conducted with 0.1 mL of DMSO/9.9 mL of Hank's balanced salts solution (HBSS) and stored overnight at 4° C. […] The pg/mL of TXB2 can be calculated from the standard line included on each plate, from which it can be possible to calculate the percent inhibition of COX-1 and the IC50 values for the test drug compounds. […]
COX-2 selectivity can be determined by ratio in terms of IC50 value of COX-1 inhibition to COX-2 inhibition. […]

T2 sequence (P23219 24-599): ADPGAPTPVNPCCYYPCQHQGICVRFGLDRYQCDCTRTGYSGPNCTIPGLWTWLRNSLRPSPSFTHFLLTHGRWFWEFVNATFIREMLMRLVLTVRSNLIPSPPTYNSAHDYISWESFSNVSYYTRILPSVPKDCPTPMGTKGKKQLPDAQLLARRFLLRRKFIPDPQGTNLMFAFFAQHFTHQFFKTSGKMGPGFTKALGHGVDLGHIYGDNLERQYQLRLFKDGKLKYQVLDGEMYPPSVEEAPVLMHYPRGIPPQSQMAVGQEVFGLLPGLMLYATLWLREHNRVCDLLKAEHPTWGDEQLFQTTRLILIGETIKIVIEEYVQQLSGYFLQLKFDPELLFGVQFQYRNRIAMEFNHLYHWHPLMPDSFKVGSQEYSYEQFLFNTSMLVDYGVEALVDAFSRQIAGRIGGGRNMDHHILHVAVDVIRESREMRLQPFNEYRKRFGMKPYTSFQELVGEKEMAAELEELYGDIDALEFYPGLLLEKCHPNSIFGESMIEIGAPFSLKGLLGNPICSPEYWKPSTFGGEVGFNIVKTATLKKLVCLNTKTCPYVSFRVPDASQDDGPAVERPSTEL

selectivity for COX-2 (COX-1/COX-2 IC50) (COX-2): no selectivity for COX-2
IC50 (COX-1): > 150 µM
Compound: Cc1cc(C)cc(NC(=O)N2C(=O)C(C(=O)c3cnccn3)c3cc(C)c(F)cc32)c1 (centres unmarked) [6-Fluoro-5-methyl-2-oxo-3-(pyrazine-2-carbonyl)-2,3-dihydro-indole-1-carboxylic acid (3,5-dimethyl-phenyl)-amide]

— patent US6846818B2, “Selective inhibitors of cyclooxygenase-2” (Pfizer Inc., priority 2002, dated 2005)
